Data taken from patent US12264159B2, “Functionalized heterocycles as antiviral agents” (Enanta Pharmaceuticals, Inc., priority 2018, dated 2025).

Key:
HBV in 2.2.15 cells = assay: 2.2.15 cells: viral product in cell lysates quantified via quantitative real time PCR; type: cell-based, hepatitis B virus (HBV); settings: Hepatitis B virus, 120 h, day 5 post treatment, 50% reduction of viral product vs no drug controls, readout (qPCR, HBsAg or HBeAg) not specified for the column
Procedure, shortened: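 HBV product was measured at day 5 by lysate qPCR or by supernatant HBsAg/HBeAg ELISA, in 2.2.15 cells seeded at 35,000/well and exposed to 5-fold compound dilution series (0.5% DMSO). EC50 is 50% reduction of viral product relative to untreated controls.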

[1] = Compound induced cellular toxicity in HepG2 cells, ATPlite 1Step; type: cell-based; settings: human, three days exposure, 50% reduction of total ATP vs no drug controls
Procedure: At day 3, post seeding cells are treated with ATPlite 1Step according to the manufacturer's instructions.

Row | Structure (SMILES) | EC50 (HBV in 2.2.15 cells) | CC50 at 3 days [1]
1 | Cc1cccc(F)c1-c1cc2n(n1)C[C@@H](C(C)(C)C)n1cc(C(=O)O)c(=O)cc1-2 [Example 51, (R)-6-(tert-butyl)-2-(2-fluoro-6-methylphenyl)-10-oxo-5,6-dihydro-10H-pyrazolo[1,5-a]pyrido[2,2-c]pyrazine-12-carboxylic acid] | 0.2 to 1 µM | > 25 µM
2 | CC(C)[C@@H]1Cn2nc(C3CC3)c(-c3ccccc3F)c2-c2cc(=O)c(C(=O)O)cn21 [Example 129, (R)-2-cyclopropyl-1-(2-fluorophenyl)-6-isopropyl-10-oxo-5,6-dihydro-10H-pyrazolo[1,5-a]pyrido[2,1-c]pyrazine-9-carboxylic acid] | < 0.1 µM | > 25 µM
3 | COc1ccc(OC(F)(F)F)cc1-c1cc2n(n1)C[C@@H](C(C)(C)C)n1cc(C(=O)O)c(=O)cc1-2 [Example 33, (R)-6-(tert-butyl)-2-(2-methoxy-5-(trifluoromethoxy)phenyl)-10-oxo-5,6-dihydro-10H-pyrazolo[1,5-a]pyrido[2,2-c]pyrazine-12-carboxylic acid] | < 0.1 µM | > 25 µM
4 | COc1cccc(-c2cc3n(n2)C[C@@H](C(C)(C)C)n2cc(C(=O)O)c(=O)cc2-3)c1OC [Example 23, (R)-6-(tert-butyl)-2-(2,3-dimethoxyphenyl)-10-oxo-5,6-dihydro-10H-pyrazolo[1,5-a]pyrido[2,2-c]pyrazine-12-carboxylic acid] | 0.2 to 1 µM | > 25 µM
5 | CC(C)(C)[C@@H]1Cn2nc(-c3ccc(F)cc3)c(-c3cccc(F)c3)c2-c2cc(=O)c(C(=O)O)cn21 [Example 168, (R)-6-(tert-butyl)-1-(3-fluorophenyl)-2-(4-fluorophenyl)-10-oxo-5,6-dihydro-10H-pyrazolo[1,5-a]pyrido[2,1-c]pyrazine-9-carboxylic acid] | < 0.1 µM | 10 to 25 µM
6 | Cc1ccc(-c2cnn3c2-c2cc(=O)c(C(=O)O)cn2[C@H](C(C)(C)C)C3)cc1 [Example 126, (R)-6-(tert-butyl)-10-oxo-1-(p-tolyl)-5,6-dihydro-10H-pyrazolo[1,5-a]pyrido[2,1-c]pyrazine-9-carboxylic acid] | < 0.1 µM | > 25 µM
7 | CC(C)(C)[C@@H]1Cn2nc(-c3ccccc3OC3CC3)cc2-c2cc(=O)c(C(=O)O)cn21 [Example 81, (R)-6-(tert-butyl)-2-(2-cyclopropoxyphenyl)-10-oxo-5,6-dihydro-10H-pyrazolo[1,5-a]pyrido[2,2-c]pyrazine-12-carboxylic acid] | < 0.1 µM | > 25 µM
8 | CC(C)(C)[C@@H]1Cn2nc(-c3ccc(F)cc3)cc2-c2cc(=O)c(C(=O)O)cn21 [Example 1, (R)-6-(tert-butyl)-2-(4-fluorophenyl)-10-oxo-5,6-dihydro-10H-pyrazolo[1,5-a]pyrido[2,2-c]pyrazine-12-carboxylic acid] | < 0.1 µM | > 25 µM
9 | CC(C)(C)[C@@H]1Cn2nc(C3CC3)c(-c3ccc(F)cc3)c2-c2cc(=O)c(-c3ncn[nH]3)cn21 [Example 196, (R)-6-(tert-butyl)-2-cyclopropyl-1-(4-fluorophenyl)-9-(1H-1,2,4-triazol-5-yl)-5,6-dihydro-10H-pyrazolo[1,5-a]pyrido[2,1-c]pyrazin-10-one] | < 0.1 µM | > 25 µM
10 | CC(C)(C)[C@@H]1Cn2nc(-c3cccc(F)c3)c(-c3cccc(F)c3)c2-c2cc(=O)c(C(=O)O)cn21 [Example 94, (R)-6-(tert-butyl)-1,2-bis(3-fluorophenyl)-10-oxo-5,6-dihydro-10H-pyrazolo[1,5-a]pyrido[2,1-c]pyrazine-9-carboxylic acid] | < 0.1 µM | > 25 µM
11 | CC(C)[C@@H]1Cn2nc(C3CC3)c(-c3ccsc3)c2-c2cc(=O)c(C(=O)O)cn21 [Example 128, (R)-2-cyclopropyl-6-isopropyl-10-oxo-1-(thiophen-3-yl)-5,6-dihydro-10H-pyrazolo[1,5-a]pyrido[2,1-c]pyrazine-9-carboxylic acid] | < 0.1 µM | > 25 µM
12 | CC(C)(C)[C@@H]1Cn2nc(-c3cc(F)c(F)cc3N)cc2-c2cc(=O)c(C(=O)O)cn21 [Example 64, (R)-2-(2-amino-4,5-difluorophenyl)-6-(tert-butyl)-10-oxo-5,6-dihydro-10H-pyrazolo[1,5-a]pyrido[2,2-c]pyrazine-12-carboxylic acid] | < 0.1 µM | > 25 µM
13 | COc1ccc(OC(F)(F)F)c(-c2cc3n(n2)C[C@@H](C(C)(C)C)n2cc(C(=O)O)c(=O)cc2-3)c1 [Example 34, (R)-6-(tert-butyl)-2-(5-methoxy-2-(trifluoromethoxy)phenyl)-10-oxo-5,6-dihydro-10H-pyrazolo[1,5-a]pyrido[2,2-c]pyrazine-12-carboxylic acid] | < 0.1 µM | > 25 µM
14 | CC(C)(C)[C@@H]1Cn2nc(-c3ccc(F)cc3F)cc2-c2cc(=O)c(C(=O)O)cn21 [Example 8, (R)-6-(tert-butyl)-2-(2,4-difluorophenyl)-10-oxo-5,6-dihydro-10H-pyrazolo[1,5-a]pyrido[2,2-c]pyrazine-12-carboxylic acid] | < 0.1 µM | > 25 µM
15 | CC(C)(C)[C@@H]1Cn2ncc(-c3ccccc3OC(F)(F)F)c2-c2cc(=O)c(C(=O)O)cn21 [Example 115, (R)-6-(tert-butyl)-10-oxo-1-(2-(trifluoromethoxy)phenyl)-5,6-dihydro-10H-pyrazolo[1,5-a]pyrido[2,1-c]pyrazine-9-carboxylic acid] | < 0.1 µM | > 25 µM
16 | C[C@@H]1Cn2nc(-c3ccccc3)c(-c3ccccc3)c2-c2cc(=O)c(C(=O)O)cn21 [Example 203, (R)-6-methyl-10-oxo-1,2-diphenyl-5,6-dihydro-10H-pyrazolo[1,5-a]pyrido[2,1-c]pyrazine-9-carboxylic acid] | < 0.1 µM | > 25 µM
17 | CC(C)(C)[C@@H]1Cn2nc(-c3cccc4c3OC(F)(F)O4)c(Cl)c2-c2cc(=O)c(C(=O)O)cn21 [Example 88, (R)-6-(tert-butyl)-1-chloro-2-(2,2-difluorobenzo[d][1,3]dioxol-4-yl)-10-oxo-5,6-dihydro-10H-pyrazolo[1,5-a]pyrido[2,1-c]pyrazine-9-carboxylic acid] | < 0.1 µM | > 25 µM
18 | CC(C)(C)[C@@H]1Cn2nc(C3CC3)c(-c3cccs3)c2-c2cc(=O)c(C(=O)O)cn21 [Example 156, (R)-6-(tert-butyl)-2-cyclopropyl-10-oxo-1-(thiophen-2-yl)-5,6-dihydro-10H-pyrazolo[1,5-a]pyrido[2,1-c]pyrazine-9-carboxylic acid] | < 0.1 µM | > 25 µM
19 | CC(C)(C)[C@@H]1Cn2ncc(-c3cccc(OC(F)(F)F)c3)c2-c2cc(=O)c(C(=O)O)cn21 [Example 116, (R)-6-(tert-butyl)-10-oxo-1-(3-(trifluoromethoxy)phenyl)-5,6-dihydro-10H-pyrazolo[1,5-a]pyrido[2,1-c]pyrazine-9-carboxylic acid] | < 0.1 µM | > 25 µM
20 | COc1cccc(-c2c(C3CC3)nn3c2-c2cc(=O)c(C(=O)O)cn2[C@H](C(C)(C)C)C3)c1 [Example 157, (R)-6-(tert-butyl)-2-cyclopropyl-1-(3-methoxyphenyl)-10-oxo-5,6-dihydro-10H-pyrazolo[1,5-a]pyrido[2,1-c]pyrazine-9-carboxylic acid] | < 0.1 µM | > 25 µM
21 | CC(C)(C)[C@@H]1Cn2nc(-c3c(F)cccc3F)cc2-c2cc(=O)c(C(=O)O)cn21 [Example 29, (R)-6-(tert-butyl)-2-(2,6-difluorophenyl)-10-oxo-5,6-dihydro-10H-pyrazolo[1,5-a]pyrido[2,2-c]pyrazine-12-carboxylic acid] | < 0.1 µM | > 25 µM
22 | CC(C)(C)[C@@H]1Cn2nc(-c3cccc(F)c3F)cc2-c2cc(=O)c(C(=O)O)cn21 [Example 30, (R)-6-(tert-butyl)-2-(2,3-difluorophenyl)-10-oxo-5,6-dihydro-10H-pyrazolo[1,5-a]pyrido[2,2-c]pyrazine-12-carboxylic acid] | < 0.1 µM | > 25 µM
23 | CC(C)[C@@H]1Cn2nc(-c3ccccc3)c(-c3ccccc3)c2-c2cc(=O)c(-c3ncn[nH]3)cn21 [Example 192, (R)-6-isopropyl-1,2-diphenyl-9-(1H-1,2,4-triazol-5-yl)-5,6-dihydro-10H-pyrazolo[1,5-a]pyrido[2,1-c]pyrazin-10-one] | < 0.1 µM | > 25 µM
24 | CC(C)(C)[C@@H]1Cn2ncc(-c3ccc(F)cc3)c2-c2cc(=O)c(C(=O)O)cn21 [Example 101, (R)-6-(tert-butyl)-1-(4-fluorophenyl)-10-oxo-5,6-dihydro-10H-pyrazolo[1,5-a]pyrido[2,1-c]pyrazine-9-carboxylic acid] | < 0.1 µM | > 25 µM
25 | COc1cccc(-c2cc3n(n2)C[C@@H](C(C)(C)C)n2cc(C(=O)O)c(=O)cc2-3)c1C#N [Example 45, (R)-6-(tert-butyl)-2-(2-cyano-3-methoxyphenyl)-10-oxo-5,6-dihydro-10H-pyrazolo[1,5-a]pyrido[2,2-c]pyrazine-12-carboxylic acid] | < 0.1 µM | > 25 µM
26 | Cc1cccc(-c2c(C3CC3)nn3c2-c2cc(=O)c(C(=O)O)cn2[C@H](C(C)(C)C)C3)c1 [Example 153, (R)-6-(tert-butyl)-2-cyclopropyl-10-oxo-1-(m-tolyl)-5,6-dihydro-10H-pyrazolo[1,5-a]pyrido[2,1-c]pyrazine-9-carboxylic acid] | < 0.1 µM | 10 to 25 µM
27 | C[C@@H]1Cn2nc(-c3ccc(F)cc3)c(-c3ccc(F)cc3)c2-c2cc(=O)c(C(=O)O)cn21 [Example 204, (R)-1,2-bis(4-fluorophenyl)-6-methyl-10-oxo-5,6-dihydro-10H-pyrazolo[1,5-a]pyrido[2,1-c]pyrazine-9-carboxylic acid] | < 0.1 µM | > 25 µM
